{"source": "patent US5731334A", "about": "“Method for treating cancer using taxoid onium salt prodrugs” (priority 1995, dated 1998)", "key": {"[1]": {"system": "PC-3 prostate carcinoma tumor xenograft", "assay": "PC-3 prostate tumor xenograft in nude mice", "protocol": "Athymic nude mice were purchased from Harlan-Sprague-Dawley. The animals were housed in microisolated cases under positive air pressure and all manipulations and drug treatments were performed in a laminar flow cabinet. Tumor cells were grown under the above tissue culture conditions. Cell suspensions in RPMI medium were injected S./C. Treatment was started one day after inoculation by i.p. injection of 400 μl drug solutions. Tumors were measured 3 times weekly in two dimensions, using calipers and tumor volume as calculated using the formula (V=w^2 ×L×(3.142).\nThe tumor model was generated from an ATTC PC-3 prostate carcinoma cell line that was maintained under standard cell proliferation conditions, viz. 37° C., 5% carbon dioxide in sterile air. Each cohort was comprised of eight randomly chosen female athymic nude mice, for a total population size of twenty four. Hemocytometer counted cells, suspended in Hanks mediun (Gibco, Grand Island N.Y.) were implanted S.C. (10^6 cells in 0.4 mL per mouse). Solid tumor growth was measured on each third day. Equimolar amounts of the test compounds (1.0 mM, 400 μL) were injected i.p. on days 1, 3, 5, 7, 9, and 11 using the following media:\n(.smallcircle.): Control, 5% dextrose in 5× distilled water (5 DW)\n(Δ): Taxol (18.0 mg/kg of animal weight or approximately 1.260 mg/m^2) suspended in Cremaphor/D5W\nInferences about efficacy were drawn by ANOVA followed by protected t-test. […] Data shown as mean value with standard error."}, "[2]": {"assay": "Comparative toxicities (lethality) in mice", "settings": "in vivo"}, "[3]": {"system": "RPMI-7666 blood lymphoblasts", "assay": "XTT dye binding cytotoxicity assay, RPMI-7666", "type": "cell-based", "settings": "Homo sapiens; RPMI-7666, blood lymphoblasts (untransformed); 72 h; read-out: IC50", "procedure": "(§1) All cell lines described herein were obtained from the ATCC and maintained in media formulations as recommended by the supplier. The cell lines were tested for mycoplasma contamination prior to incubation at 37° C. in 5% carbon dioxide. Normal human dermal fibroblasts, peripheral blood lymphoblasts and mammary epithelial cells were obtained from Clonogenic Cor., San Diego, Calif. and were maintained under the above incubation conditions in special media provided by the supplier.\n(§2) Antiproliferative activities of the onium salts were determined using the XTT dye binding assay. Cells were harvested with trypsin/EDTA (Irvine Scientific), washed, resuspended in the appropriate medium, and counted in a hemocytometer using Trypan Blue to determine viability. Then 10^4 cells/well were added to 96 well microtiter plates and incubated for 24 hours before addition of drug at concentrations in the range of 10^-4 to 10^-13 molar by direct addition from DMSO solutions. After 72 hours, XTT binding dye was added and incubation was continued for 4 hours. The inhibition of cell proliferation was quantified using a Molecular Devices Microplate Reader. The absorbance of XTT was measured at […]. The concentration of drug which inhibited growth of cells by 50% was calculated from duplicated determinations."}, "[4]": {"system": "A-549 lung carcinoma cells", "assay": "XTT dye binding cytotoxicity assay, A-549", "type": "cell-based", "settings": "Homo sapiens, A549; A-549, lung carcinoma; 72 h; read-out: IC50", "procedure": "as §1, §2"}, "[5]": {"system": "intact Molt-4 cells", "assay": "Competition binding of tritiated compounds to intact Molt-4 cells", "parameters": "species or system human", "procedure": "The competition by nonradioactive taxol or c-2'-MPA-taxol for the binding of 1×10^-9 M tritiated compounds by intact Molt-4 cells is illustrated in FIG. 3. Tritiated taxol (Moravek Corp.) was treated with 2-fluoropyridiunium tosylate according to the method of Nicolaou et al. to yield the C-2'-MPT-^3 H-taxol. (Angew. Chem., Int. Ed. 1994: vol. 34, pp. 1583-1587.) Six well plates were incubated with 10^6 Molt-4 cells in 50 mM phosphate buffered saline (PBS) or PRPMI media to which 10^-9 M of the radiolabeled taxol or taxol onium salt was added together with increasing concentrations of nonradiolabeled compound. After 30 minutes, the cells were centrifuged, washed with PBS and 1% SDS was added. […] Alternatively, the cells may be lysed by sonication."}, "[6]": {"system": "U-2511 CNS cancer cells", "assay": "XTT dye binding cytotoxicity assay, U-2511", "type": "cell-based", "settings": "Homo sapiens; U-2511, CNS cancer; 72 h; read-out: IC50", "procedure": "as §1, §2"}, "[7]": {"system": "BT-549 breast carcinoma cells", "assay": "XTT dye binding cytotoxicity assay, BT-549", "type": "cell-based", "settings": "Homo sapiens; BT-549, breast carcinoma; 72 h; read-out: IC50", "procedure": "as §1, §2"}, "[8]": {"system": "SIHA squamous carcinoma cells", "assay": "XTT dye binding cytotoxicity assay, SIHA", "type": "cell-based", "settings": "Homo sapiens; SIHA, squamous carcinoma; 72 h; read-out: IC50", "procedure": "as §1, §2"}}, "data": [{"smiles": "CC(=O)O[C@H]1C(=O)[C@@]2(C)[C@H]([C@H](OC(=O)c3ccccc3)[C@]3(O)C[C@H](OC(=O)[C@H](Oc4cccc[n+]4C)[C@@H](NC(=O)c4ccccc4)c4ccccc4)C(C)=C1C3(C)C)[C@]1(OC(C)=O)CO[C@@H]1C[C@@H]2O", "note": "[Compound 2]", "values": [{"measurement": "antitumor activity, PC-3", "setting": "[1]; 1.0 mM, 400 μL i.p., established tumors", "value": "regression of established tumors"}, {"measurement": "complete remission with no palpable tumor mass, PC-3", "setting": "[1]; at termination, after 24 days", "value": "5 out of 8 animals"}, {"measurement": "in vivo toxicity relative to taxol or taxotere", "setting": "[2]", "value": "much less toxic in vivo than taxol or taxotere"}, {"measurement": "Toxicity", "setting": "[2]; mouse", "value": "minimal toxicity"}, {"measurement": "lethality", "setting": "[2]; mouse", "value": "no lethality"}, {"measurement": "IC50", "setting": "[3]", "value": 0.131, "unit": "µM"}, {"measurement": "IC50", "setting": "[4]", "value": 0.152, "unit": "µM"}, {"measurement": "Kd", "setting": "[5]; calculated from slopes of linear portions of curves in FIG. 3, read-out: binding constant", "value": 3, "unit": "µM"}, {"measurement": "affinity in competition assays of intact cells, in words", "setting": "[5]; relative to parent taxol", "value": "three orders of magnitude below that of the parent taxol"}, {"measurement": "lower specific binding affinity than taxol", "setting": "[5]; relative to taxol", "value": "approximately 1000 fold"}, {"measurement": "IC50", "setting": "[6]", "value": 0.86, "unit": "µM"}, {"measurement": "IC50", "setting": "[7]", "value": 0.00572, "unit": "µM"}, {"measurement": "IC50", "setting": "[8]", "value": 0.00378, "unit": "µM"}]}]}
